Measured values taken from ChEMBL document CHEMBL3046557, “Synthesis, biological evaluation, and molecular modeling studies of novel heterocyclic compounds as anti-proliferative agents” (2013).

How the values were obtained:
Assay type in all cases: functional
NCI-H522 = test: Cytotoxicity against human NCI-H522 after 48 hrs by SRB assay; details: NCI-H522, 48 h
NCI-H322M = test: Cytotoxicity against human NCI-H322M after 48 hrs by SRB assay
NCI-H226 = test: Cytotoxicity against human NCI-H226 after 48 hrs by SRB assay; details: NCI-H226, 48 h
NCI-H23 = test: Cytotoxicity against human NCI-H23 after 48 hrs by SRB assay; details: NCI-H23, 48 h
HOP-62 = test: Cytotoxicity against human HOP62 after 48 hrs by SRB assay; details: HOP-62, 48 h
HOP-92 = test: Cytotoxicity against human HOP92 after 48 hrs by SRB assay; details: HOP-92, 48 h
EKVX = test: Cytotoxicity against human EKVX after 48 hrs by SRB assay
A549 = test: Cytotoxicity against human A549 after 48 hrs by SRB assay; details: A549, 48 h
SR = test: Cytotoxicity against human SR after 48 hrs by SRB assay
RPMI-8226 = test: Cytotoxicity against human RPMI8226 after 48 hrs by SRB assay; details: RPMI-8226, 48 h
MOLT-4 = test: Cytotoxicity against human MOLT4 after 48 hrs by SRB assay; details: MOLT-4, 48 h
K562 = test: Cytotoxicity against human K562 after 48 hrs by SRB assay; details: K562, 48 h
CCRF-CEM = test: Cytotoxicity against human CCRF-CEM after 48 hrs by SRB assay
BT-549 = test: Cytotoxicity against human BT549 after 48 hrs by SRB assay; details: BT-549, 48 h
T47D = test: Cytotoxicity against human T47D after 48 hrs by SRB assay
Hs-578T = test: Cytotoxicity against human Hs 578T after 48 hrs by SRB assay
MCF7 = test: Cytotoxicity against human MCF7 after 48 hrs by SRB assay; details: MCF7, 48 h
MDA-MB-231 = test: Cytotoxicity against human MDA-MB-231 after 48 hrs by SRB assay; details: MDA-MB-231, 48 h
OVCAR-5 = test: Cytotoxicity against human OVCAR5 after 48 hrs by SRB assay; details: OVCAR-5, 48 h
OVCAR-3 = test: Cytotoxicity against human OVCAR3 after 48 hrs by SRB assay; details: OVCAR-3, 48 h
OVCAR-4 = test: Cytotoxicity against human OVCAR4 after 48 hrs by SRB assay; details: OVCAR-4, 48 h
UACC-257 = test: Cytotoxicity against human UACC257 after 48 hrs by SRB assay; details: UACC-257, 48 h
UACC-62 = test: Cytotoxicity against human UACC62 after 48 hrs by SRB assay; details: UACC-62, 48 h
SK-MEL-5 = test: Cytotoxicity against human SK-MEL-5 after 48 hrs by SRB assay; details: SK-MEL-5, 48 h
SK-MEL-2 = test: Cytotoxicity against human SK-MEL-2 after 48 hrs by SRB assay; details: SK-MEL-2, 48 h
SK-MEL-28 = test: Cytotoxicity against human SK-MEL-28 after 48 hrs by SRB assay; details: SK-MEL-28, 48 h
MDA-MB-435 = test: Cytotoxicity against human MDA-MB-435 after 48 hrs by SRB assay; details: MDA-MB-435, 48 h
M14 = test: Cytotoxicity against human M14 after 48 hrs by SRB assay; details: M14, 48 h
Malme-3M = test: Cytotoxicity against human MALME-3M after 48 hrs by SRB assay
LOX IMVI = test: Cytotoxicity against human LOXIMVI after 48 hrs by SRB assay
SNB-75 = test: Cytotoxicity against human SNB75 after 48 hrs by SRB assay; details: SNB-75, 48 h
U-251 = test: Cytotoxicity against human U251 after 48 hrs by SRB assay; details: U-251, 48 h
SNB-19 = test: Cytotoxicity against human SNB19 after 48 hrs by SRB assay; details: SNB-19, 48 h
SF-539 = test: Cytotoxicity against human SF539 after 48 hrs by SRB assay; details: SF-539, 48 h
SF-295 = test: Cytotoxicity against human SF295 after 48 hrs by SRB assay; details: SF-295, 48 h
SF-268 = test: Cytotoxicity against human SF268 after 48 hrs by SRB assay; details: SF-268, 48 h
SW-620 = test: Cytotoxicity against human SW620 after 48 hrs by SRB assay; details: SW-620, 48 h
KM12 = test: Cytotoxicity against human KM12 after 48 hrs by SRB assay; details: KM12, 48 h
HT-29 = test: Cytotoxicity against human HT-29 after 48 hrs by SRB assay; details: HT-29, 48 h
HCT-116 = test: Cytotoxicity against human HCT116 after 48 hrs by SRB assay; details: HCT-116, 48 h
HCT-15 = test: Cytotoxicity against human HCT15 after 48 hrs by SRB assay; details: HCT-15, 48 h
HCC 2998 = test: Cytotoxicity against human HCC2998 after 48 hrs by SRB assay; details: HCC 2998, 48 h
COLO 205 = test: Cytotoxicity against human COLO205 after 48 hrs by SRB assay; details: COLO 205, 48 h
NCI-H460 = test: Cytotoxicity against human NCI-H460 after 48 hrs by SRB assay; details: NCI-H460, 48 h
PC-3 = test: Cytotoxicity against human PC3 after 48 hrs by SRB assay; details: PC-3, 48 h
DU-145 = test: Cytotoxicity against human DU145 after 48 hrs by SRB assay; details: DU-145, 48 h
TK-10 = test: Cytotoxicity against human TK10 after 48 hrs by SRB assay; details: TK-10, 48 h
UO-31 = test: Cytotoxicity against human UO31 after 48 hrs by SRB assay; details: UO-31, 48 h
SN12C = test: Cytotoxicity against human SN12C after 48 hrs by SRB assay
CAKI-1 = test: Cytotoxicity against human Caki1 after 48 hrs by SRB assay; details: CAKI-1, 48 h
RXF 393 = test: Cytotoxicity against human RXF393 after 48 hrs by SRB assay; details: RXF 393, 48 h
786-0 = test: Cytotoxicity against human 786-0 after 48 hrs by SRB assay; details: 786-0, 48 h
ACHN = test: Cytotoxicity against human ACHN after 48 hrs by SRB assay
SK-OV-3 = test: Cytotoxicity against human SKOV3 after 48 hrs by SRB assay; details: SK-OV-3, 48 h
OVCAR-8 = test: Cytotoxicity against human OVCAR8 after 48 hrs by SRB assay; details: OVCAR-8, 48 h
[1] = Cytotoxicity against human NCI-ADR-RES after 48 hrs by SRB assay

## CC12CCC(C(CN3C(=O)C(=O)c4ccccc43)C1=O)C2(C)C (configuration not stated)
NCI-H522
  GI50: 13.5 µM
  TGI: 29.4 µM
NCI-H322M
  GI50: 23.4 µM
  TGI: 38.3 µM
NCI-H226
  GI50: 21.8 µM
  TGI: 61 µM
NCI-H23
  GI50: 14.5 µM
  TGI: 29.6 µM
HOP-62
  GI50: 15.6 µM
  TGI: 30.1 µM
HOP-92
  GI50: 17.9 µM
  TGI: 38.3 µM
EKVX
  GI50: 19.6 µM
  TGI: 37.9 µM
A549
  GI50: 16.9 µM
  TGI: 32.9 µM
SR
  GI50: 1530 nM
  TGI: 4.02 µM
RPMI-8226
  GI50: 3.22 µM
  TGI: 17.2 µM
MOLT-4
  GI50: 3.51 µM
  TGI: 10.6 µM
K562
  GI50: 2460 nM
  TGI: 8.2 µM
CCRF-CEM
  GI50: 7.46 µM
  TGI: 28.6 µM
BT-549
  GI50: 12.3 µM
  TGI: 24.8 µM
T47D
  GI50: 20.6 µM
  TGI: 46.7 µM
Hs-578T
  GI50: 13.8 µM
  TGI: 32.6 µM
MCF7
  GI50: 5.8 µM
  TGI: 24.6 µM
MDA-MB-231
  GI50: 15.1 µM
  TGI: 30 µM
OVCAR-5
  GI50: 14.8 µM
  TGI: 28.4 µM
OVCAR-3
  GI50: 15.6 µM
  TGI: 33.5 µM
OVCAR-4
  GI50: 18.8 µM
  TGI: 44.1 µM
UACC-257
  GI50: 13.9 µM
  TGI: 31.1 µM
UACC-62
  GI50: 16.2 µM
  TGI: 30.6 µM
SK-MEL-5
  GI50: 17.3 µM
  TGI: 33 µM
SK-MEL-2
  GI50: 19 µM
  TGI: 41.7 µM
SK-MEL-28
  GI50: 19.7 µM
  TGI: 39.5 µM
MDA-MB-435
  GI50: 15.6 µM
  TGI: 32.9 µM
M14
  GI50: 15.9 µM
  TGI: 33.5 µM
Malme-3M
  GI50: 26.9 µM
  TGI: 44.8 µM
LOX IMVI
  GI50: 10.4 µM
  TGI: 24.5 µM
SNB-75
  GI50: 17.1 µM
  TGI: 33.1 µM
U-251
  GI50: 15.4 µM
  TGI: 29.3 µM
SNB-19
  GI50: 13.8 µM
  TGI: 26.6 µM
SF-539
  GI50: 12.8 µM
  TGI: 25.8 µM
SF-295
  GI50: 11.1 µM
  TGI: 24.3 µM
SF-268
  GI50: 15.8 µM
  TGI: 36 µM
SW-620
  GI50: 3.21 µM
  TGI: 9.25 µM
KM12
  GI50: 4.12 µM
  TGI: 12.5 µM
HT-29
  GI50: 5.45 µM
  TGI: 20.4 µM
HCT-116
  GI50: 1950 nM
  TGI: 3.76 µM
HCT-15
  GI50: 17.1 µM
  TGI: 34.7 µM
HCC 2998
  GI50: 13.5 µM
  TGI: 27.5 µM
COLO 205
  GI50: 12.6 µM
  TGI: 29.2 µM
NCI-H460
  GI50: 16.9 µM
  TGI: 36.5 µM
PC-3
  GI50: 11.9 µM
  TGI: 25.9 µM
DU-145
  GI50: 14.9 µM
  TGI: 28.1 µM
TK-10
  GI50: 14.8 µM
  TGI: 28.5 µM
UO-31
  GI50: 13.2 µM
  TGI: 26.2 µM
SN12C
  GI50: 15.3 µM
  TGI: 31.6 µM
CAKI-1
  GI50: 16.3 µM
  TGI: 31.3 µM
RXF 393
  GI50: 5.46 µM
  TGI: 16.9 µM
786-0
  GI50: 16.8 µM
  TGI: 30.8 µM
ACHN
  GI50: 16.2 µM
  TGI: 29.7 µM
SK-OV-3
  GI50: 14.8 µM
  TGI: 28.5 µM
OVCAR-8
  GI50: 2860 nM
  TGI: 6.97 µM
[1]
  GI50: 12.7 µM
  TGI: 35.3 µM
